Patent US20230340498A1, “COMPOSITIONS AND METHODS FOR INDUCIBLE ALTERNATIVE SPLICING REGULATION OF GENE EXPRESSION” (The Children's Hospital of Philadelphia, priority 2020, published 2023)

Tested on: HEK293 cells
Assay: RNA-Seq of HEK293 cells treated with LMI070 for LMI070-induced splicing events
Format: cell-based, Human
Details: HEK293, 25 nM LMI070 for 12 hours
Experimental: Tables 1A-1E provide the genomic locations of candidate LMI070-induced exons and the frequency of events from RNA-Seq datasets. Summarized here are the differentially expressed candidate LMI070-induced splicing positions as identified by RNA-Seq of HEK293 cells treated with either DMSO or LMI070 (25 nM). All candidates shown were manually selected from a bioinformatically generated list of top hits based on their suitability for construction of an exon switching genomic minigene, their exclusivity to the LMI070 condition, and their minimal to undetectable levels in DMSO treated cells. The top 25 rows of each table indicate hits observed exclusively upon LMI070 exposure. The following 22 rows of each table indicate candidates where splicing was enriched but not totally exclusive to LMI070 treatment.
Table 1A provides the GRCh38 genomic positions used to create the splice event-containing genomic minigene, the GRCh38 genomic positions of the pseudoexon created by LMI070-induced splicing, the number of exon-exon junction spanning reads observed with DMSO treatment, and the number of exon-exon junctions spanning reads observed with LMI070 treatment. […]
RNA-Seq Methods. […] Splice junction output by STAR were quantified using a custom R script designed to identify splicing events unique to LMI070 treatment. Top ranking LMI070-exclusive splice events were manually assessed for their applicability to function as a splicing switch. […] Candidate splice events were visually evaluated using the Sashimi plot function available in IGV (Thorvaldsdottir et al., 2013; Katz et al., 2015).
Next, exons that were more sensitive to LMI070 to reduce non-target splice events were sought out. […] Reads obtained from 4 control and 4 LMI070 treated samples were aligned to the genome using the STAR aligner (Dobin & Gingeras, 2015) and splicing events exclusive to the LMI070 treated samples identified (FIGS. 2A and 2F-2N; Table 1). […]

SMILES: CC1(C)CC(Oc2ccc(-c3ccc(-c4cn[nH]c4)cc3O)nn2)CC(C)(C)N1 [LMI070, 5-(1H-Pyrazol-4-yl)-2-(6-((2,2,6,6-tetramethylpiperidin-4-yl)oxy)pyridazin-3-yl)phenol]
- events evident in all treated and in one of the control untreated samples: 22
- events found exclusively and in all LMI070 treated samples: 23
- novel splicing events identified following LMI070 treatment (threshold average greater than 5 novel intron splicing events): 45
